Patent publication US20220009914A1, “Analogs of Nitrofuran Antibiotics to Combat Resistance” (The Trustees of Indiana University, priority 2020, published 2022)
Like-named read-outs stand apart in the source and are kept apart here.

Columns and labels:
E. coli GroEL/ES = biological target: T1, E. coli GroEL/ES (Escherichia coli, UniProt P0A6F5); experiment: GroEL/ES-mediated dRho refolding assay; type: biochemical
T1 construct: made in house; host or cells: GroEL in NEB 5-alpha E. coli; GroES in E. coli BL21 (DE3)
T1 sequence (P0A6F5 2-548): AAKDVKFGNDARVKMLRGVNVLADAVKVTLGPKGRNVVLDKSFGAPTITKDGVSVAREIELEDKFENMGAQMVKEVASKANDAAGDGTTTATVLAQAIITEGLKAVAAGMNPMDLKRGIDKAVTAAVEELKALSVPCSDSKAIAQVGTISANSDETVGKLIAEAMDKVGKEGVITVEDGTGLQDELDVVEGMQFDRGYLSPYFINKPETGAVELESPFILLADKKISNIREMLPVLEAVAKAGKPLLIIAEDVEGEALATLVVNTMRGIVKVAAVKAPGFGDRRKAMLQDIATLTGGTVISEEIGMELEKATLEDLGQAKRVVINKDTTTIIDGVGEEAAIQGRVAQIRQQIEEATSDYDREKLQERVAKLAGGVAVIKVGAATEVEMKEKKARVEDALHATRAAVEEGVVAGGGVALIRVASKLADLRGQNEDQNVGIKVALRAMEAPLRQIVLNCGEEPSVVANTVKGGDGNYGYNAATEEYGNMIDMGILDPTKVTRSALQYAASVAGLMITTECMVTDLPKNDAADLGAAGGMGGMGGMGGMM
Description: Evaluating compounds for inhibition in the GroEL/ES-mediated dRho refolding assay. Reagent preparation: For this assay, five primary reagent stocks were prepared: 1) GroEL/ES-dRho binary complex stock; 2) ATP initiation stock; 3) thiocyanate enzymatic assay stock; 4) formaldehyde quench stock; 5) ferric nitrate reporter stock. Denatured rhodanese (dRho) was prepared by 3-fold dilution of rhodanese (Roche product #R^1756, diluted to 10 mg/mL with H2O) with denaturant buffer (12 M Urea, 50 mM Tris-HCl, pH 7.4, and 10 mM DTT). Rhodanese was completely denatured by incubating at room temperature for >45 min. The binary complex solution was prepared by slowly adding the dRho stock to a stirring stock of concentrated GroEL in modified folding buffer (50 mM Tris-HCl, pH 7.4, 50 mM KCl, 10 mM MgCl2, 5 mM Na2S2O3, and 1 mM DTT). The solution was centrifuged at 16,000×g for 5 minutes, and the supernatant was collected and added to a solution of GroES in modified folding buffer to give final protein concentrations of 100 nM GroEL, 120 nM GroES, and 80 nM dRho. The binary complex stock was prepared immediately prior to use. For the ATP initiation stock, ATP solid was diluted into modified folding buffer to a final concentration of 2.0 mM. The thiocyanate enzymatic assay stock was prepared to contain 70 mM KH2PO4, 80 mM KCN, and 80 mM Na2S2O3 in water. The formaldehyde quench solution contained 30% formaldehyde in water.
Assay Protocol: First, 10 μL aliquots of the GroEL/ES-dRho complex stock were dispensed into clear, flat-bottom 384-well polystyrene plates. […] After incubating for 40 minutes at 37° C. for the refolding cycle, 30 μL of the thiocyanate enzymatic assay stock was added and incubated for 60 min at room temperature for the refolded rhodanese enzymatic reporter reaction. The reporter reaction was quenched by adding 10 μL of the formaldehyde quench stock, and then 40 μL of the ferric nitrate reporter stock was added to quantify the amount of thiocyanate produced during the enzymatic reporter reaction, which is proportional to the amount of dRho refolded by GroEL/ES. After incubating at room temperature for 15 min, the absorbance by Fe(SCN)3 was measured at 460 nm using a Molecular Devices SpectraMax Plus384 microplate reader. A second set of baseline control plates were prepared analogously, but without GroEL/ES-dRho protein binary solution, to correct for possible interference from compound absorbance or turbidity. […] Results presented represent the averages of IC50 values obtained from at least four replicates.
Evaluating compounds for inhibition in the GroEL/ES-mediated dRho refolding assay. All compounds were evaluated for inhibiting E. coli GroEL/ES-mediated refolding of the denatured Rho reporter enzyme as per our previously reported procedure. Results presented represent the averages of IC50 values obtained from at least four replicates.

[1] = system: Pseudomonas aeruginosa strain NCTC 10332 (ATCC #10145); experiment: bacterial proliferation assay, P. aeruginosa; type: cell-based; conditions: read-out: Bacterial Proliferation EC50 P. aeruginosa
Description: (§1) All compounds were evaluated for inhibiting the proliferation of E. coli and each of the ESKAPE bacteria. Results presented represent the averages of EC50 values obtained from at least four replicates. Evaluating compounds for inhibition of bacterial cell proliferation.
(§2) Growth Media: E. coli were grown with LB medium and all ESKAPE bacteria were grown in Brain Heart Infusion (BHI) medium (Becton, Dickinson and Company), with all liquid cultures supplemented with 25 mg/L Ca^2+ and 12.5 mg/L Mg^2+ to mimic physiological free concentrations of these cations. A 10 mg/mL Ca^2+ stock solution was prepared by dissolving 1.84 g of CaCl2.2H2O in 50 mL of deionized water, and a 10 mg/mL Mg^2+ stock solution was prepared by dissolving 4.18 g of MgCl2.6H2O in 50 mL deionized water—filter sterilized using 0.2 μm cellulose-acetate filters. 2.5 mL of the sterile 10 mg/mL Ca^2+ stock and 1.25 mL of the sterile 10 mg/mL Mg^2+ stock solutions were added per 1 L of autoclaved LB or BHI media to obtain 25 mg/L Ca^2+ and 12.5 mg/L Mg^2+ ions, respectively.
(§3) General Assay Protocol: Stock bacterial cultures were streaked onto LB or BHI agar plates and grown overnight at 37° C. Fresh aliquots of cation supplemented media were inoculated with single bacterial colonies and the cultures were grown overnight at 37° C. with shaking (240 rpm). The following morning, cultures were diluted 10-fold into fresh media and grown at 37° C. until bacteria had reached mid-log phase growth (OD600˜0.4-0.6). The cultures were then diluted into fresh media to achieve final OD600 readings of 0.017. Aliquots of these diluted cultures (30 μL) were added to clear, flat-bottom 384-well polystyrene plates that were previously stamped with 0.5 μL of test compounds in 20 μL of media (yielding initial OD600=0.01 bacterial cultures). All compounds were tested in dose-response with concentration ranges during the proliferation assays from 100 μM to 46 nM (3-fold dilution series). A second set of baseline control plates were prepared analogously, but without any bacteria added, to correct for possible compound absorbance and/or precipitation. […] Plates were then read at 600 nm using a Molecular Devices SpectraMax Plus384 microplate reader. […] Results presented represent the averages of EC50 values obtained from at least four replicates.
(§4) Evaluating analogs for inhibiting the growth of E. coli and the ESKAPE bacteria. Analogs were initially tested for antibacterial efficacy against representative strains of antibiotic-sensitive E. coli and the ESKAPE bacteria. To determine compound efficacy, bacterial proliferation assays were carried out in liquid media culture supplemented with physiological concentrations of free calcium and magnesium cations. For these assays, bacterial cultures (OD600=0.01) were exposed to test compounds in 8-point, 3-fold dilution series (100 μM to 46 nM concentration range), in 384-well plates. After addition of compounds to cultures, the plates were sealed with Breathe-Easy gas permeable membranes and allowed to grow to mid-log phase (OD600˜0.4-0.6), whereupon final OD600 readings were taken to assess for bacterial growth and inhibition.

[2] = system: NEB 5-alpha Escherichia coli; experiment: bacterial proliferation assay, E. coli; type: cell-based; conditions: for EC50: read-out: Bacterial Proliferation EC50 E. coli
Description: as §1, §2, §3, §4

[3] = read-out: GroEL/ES-dRho Refolding IC50

Row | SMILES | IC50 (E. coli GroEL/ES) | EC50 [1] | EC50 ([2]; Escherichia coli) | IC50 (E. coli GroEL/ES; [3]) | EC50 [2] | inhibition of E. coli proliferation in words [2]
1 | O=C(N/N=C/c1ccc([N+](=O)[O-])o1)c1cccc2ccccc12 [Compound 22, N′-((5-nitrofuran-2-yl)methylene)-1-naphthohydrazide] | 73 µM | > 100 µM | 41 µM | – | – | –
2 | CN(C)c1ccc(C(=O)N/N=C/c2ccc([N+](=O)[O-])o2)cc1 [Compound 21, 4-(dimethylamino)-N′-((5-nitrofuran-2-yl)methylene)benzohydrazide] | – | > 100 µM | 10 µM | 26 µM | – | –
3 | O=C(N/N=C/c1ccc(O)c2ncccc12)c1cccs1 [Compound 3, N′-((8-hydroxyquinolin-5-yl)methylene)thiophene-2-carbohydrazide] | 38 µM | > 100 µM | 77 µM | – | – | –
4 | COc1ccc(C(=O)N/N=C/c2cccc3ncccc23)cc1 [Compound 31, 4-methoxy-N′-(quinolin-5-ylmethylene)benzohydrazide] | > 250 µM | > 100 µM | > 100 µM | – | – | –
5 | O=C(N/N=C/c1ccc(O)c2ncccc12)c1ccccc1 [Compound 5, N′-((8-hydroxyquinolin-5-yl)methylene)benzohydrazide] | 176 µM | > 100 µM | 63 µM | – | – | –
6 | O=C(N/N=C/c1ccc(O)c2ncccc12)c1ccncc1 [Compound 6, N′-((8-hydroxyquinolin-5-yl)methylene)isonicotinohydrazide] | > 250 µM | > 100 µM | 79 µM | – | – | –
7 | O=C1CN(/N=C/c2ccc(O)c3ncccc23)C(=O)N1 [Compound 2, 1-(((8-hydroxyquinolin-5-yl)methylene)amino)imidazolidine-2,4-dione] | 86.4 µM | > 100 µM | 80 µM | – | – | –
8 | O=C(N/N=C/c1ccc(O)c2ccccc12)c1ccccc1 [Compound 30, N′-((4-hydroxynaphthalen-1-yl)methylene)benzohydrazide] | 216 µM | > 100 µM | > 100 µM | – | – | –
9 | O=C(N/N=C/c1cccc2ncccc12)c1ccccc1 [Compound 32, N′-(quinolin-5-ylmethylene)benzohydrazide] | > 250 µM | > 100 µM | > 100 µM | – | – | –
10 | O=C(N/N=C/c1ccc(O)c2ncccc12)c1cccc(Oc2ccccc2)c1 [Compound 11, N′-((8-hydroxyquinolin-5-yl)methylene)-3-phenoxybenzohydrazide] | 7.8 µM | > 100 µM | > 100 µM | – | – | –
11 | COc1ccc(C(=O)N/N=C/c2ccccc2)cc1 [Compound 37, N′-benzylidene-4-methoxybenzohydrazide] | > 250 µM | > 100 µM | > 100 µM | – | – | –
12 | COc1ccc(C(=O)N/N=C/c2ccc(O)c3ccccc23)cc1 [Compound 29, N′-((4-hydroxynaphthalen-1-yl)methylene)-4-methoxybenzohydrazide] | 117 µM | > 100 µM | > 100 µM | – | – | –
13 | O=C(N/N=C/c1ccc(O)c2ncccc12)c1ccc(NS(=O)(=O)c2ccc(Br)cc2)cc1 [Compound 14, 4-bromo-N-(4-(2-((8-hydroxyquinolin-5-yl)methylene)hydrazine-1-carbonyl)phenyl)benzenesulfonamide] | 1.8 µM | > 100 µM | ≥ 100 µM | – | > 100 µM | –
14 | COc1ccc(C(=O)N/N=C/c2ccc(O)cc2)cc1 [Compound 35, N′-(4-hydroxybenzylidene)-4-methoxybenzohydrazide] | > 250 µM | > 100 µM | > 100 µM | – | – | –
15 | O=C(N/N=C/c1ccc(O)c2ncccc12)c1ccc(NS(=O)(=O)c2cccs2)cc1 [Compound 13, N-(4-(2-((8-hydroxyquinolin-5-yl)methylene)hydrazine-1-carbonyl)phenyl)thiophene-2-sulfonamide] | 0.81 µM | > 100 µM | > 100 µM | – | – | –
16 | COc1ccc(C(=O)N/N=C/c2ccco2)cc1 [Compound 39, N′-(furan-2-ylmethylene)-4-methoxybenzohydrazide] | > 250 µM | > 100 µM | > 100 µM | – | – | –
17 | O=Cc1ccc(O)c2ncccc12 [Compound 40, reference compound] | – | > 100 µM | 14 µM | 30 µM | – | –
18 | O=C(N/N=C/c1cccc2ccccc12)c1ccccc1 [Compound 34, N′-(naphthalen-1-ylmethylene)benzohydrazide] | 209 µM | > 100 µM | > 100 µM | – | – | –
19 | O=C(N/N=C/c1ccc([N+](=O)[O-])o1)c1ccncc1 [Compound 19, N′-((5-nitrofuran-2-yl)methylene)isonicotinohydrazide] | 64 µM | > 100 µM | 2.4 µM | – | – | –
20 | O=C1CN(/N=C/c2ccc([N+](=O)[O-])o2)C(=O)N1 [Nitrofurantoin, reference compound] | > 250 µM | > 100 µM | 0.69 µM | – | – | potent inhibitors
21 | COc1ccc(C(=O)N/N=C/c2cccc3ccccc23)cc1 [Compound 33, 4-methoxy-N′-(naphthalen-1-ylmethylene)benzohydrazide] | 129 µM | > 100 µM | > 100 µM | – | – | –
22 | CCN(CC)S(=O)(=O)c1cccc(C(=O)N/N=C/c2ccc(O)c3ncccc23)c1 [Compound 12, N,N-diethyl-3-(2-((8-hydroxyquinolin-5-yl)methylene)hydrazine-1-carbonyl)benzenesulfonamide] | 10 µM | 85 µM | 99 µM | – | – | –
